Patent US20250346597A1, “CONDENSED HETEROCYCLIC COMPOUNDS AS INHIBITOR OF DIACYLGLYCEROL KINASES” (BEONE MEDICINES I GMBH, priority 2023, published 2025)

Key:
[1] = molecular target: DGKα (Homo sapiens (Human), UniProt P23743); assay: Biochemical DGK IC50 assay (ADP-Glo, lipid micelle substrate), DGKα; details: full length DGKα […], ATP 140 μM, DAG 80 μM; also: full length DGKα 7.5 nM
Protocol: (§1) Enzymatic reactions of DGKζ, DGKα and DGKδ were performed using ADP-Glo assay with lipid micelle substrate. […] Full length DGKα (D21-10BG, SignalChem) and full length DGKδ (D23-10G, SignalChem) were purchased. Lipid micelle was prepared by dissolving DAG (Sigma, 317505-10MG) and PS (Sigma, P7769-100MG) with chloroform which was furtherly removed by rotary evaporation. The resulted product was resuspended in buffer containing 25 mM HEPES pH 7.0, 0.5 mM EDTA and 160 mM Octyl P-D glucopyranoside by vigorous mixing and ultrasonic (IID, Scientz).
(§2) The inhibition activities testing for the compound disclosed herein were carried out at room temperature in assay buffer containing 50 mM HEPES, 10 mM MgCl2, 0.01% BSA, 0.1 mM Na3VO4, 0.005% Tween-20 and 0.01 mM CaCl2. Compounds in DMSO were dispensed into wells of a black 384 well plate (Corning 4514) using D300e digital dispenser (Tecan). […] 3 μL 2× enzyme solution was added to wells. […] After 1 hour reaction, 5 μL ADP-Glo reagent (Promga V9101) was added and incubated for 40 minutes. 10 μL Kinase Detection reagent was added and incubated for 30 minutes. Luminescence was measured on a microplate reader (PHERAstar FSX, BMG labtech). The IC50s are calculated based on inhibition of enzyme activity in the presence of increasing concentrations of compounds.

[2] = molecular target: DGKζ (Homo sapiens (Human), UniProt Q13574); assay: Biochemical DGK IC50 assay (ADP-Glo, lipid micelle substrate), DGKζ; details: full length DGKζ 0.5 nM, ATP 140 μM, DAG 80 μM
Protocol: as §1, §2
Human His-TEV-DGK-zeta-pFastBac1 and human baculovirus samples was generated using the Bac-to-Bac baculovirus expression system (Invitrogen) according to the manufacturer's protocol. The DNA used for expression of DGK-zeta, have SEQ ID Nos: 1. Baculovirus amplification was achieved using infected SF9 cells at 1:2000 virus/cells ratios, and grown for 96 hours at 27° C. post-transfected.
The expression scaled up for each protein was carried out in the […] from CORNING. 4 L of 3×10^6 cells/mL Sf9 cells (Expression System, Invitrogen) grown in SF900™ II SFM insect medium (Expression System) was infected with virus stock at 1:200 virus/cells ratio, and grown for 48 hours at 27° C. post-transfection. The infected cell culture was harvested by centrifugation at 6000 rpm for 15 min 4° C. in a SORVALL LYNX6000 centrifuge. The cell pellets were stored at −80° C.
Full length human DGKζ produced as described above, was purified from Sf9 baculovirus-infected insect cell paste. The cells were lysed using sonication method, and the lysates were clarified by centrifugation.

Chain of DGKζ (Q13574 other isoform, or with tags, fused parts or gaps): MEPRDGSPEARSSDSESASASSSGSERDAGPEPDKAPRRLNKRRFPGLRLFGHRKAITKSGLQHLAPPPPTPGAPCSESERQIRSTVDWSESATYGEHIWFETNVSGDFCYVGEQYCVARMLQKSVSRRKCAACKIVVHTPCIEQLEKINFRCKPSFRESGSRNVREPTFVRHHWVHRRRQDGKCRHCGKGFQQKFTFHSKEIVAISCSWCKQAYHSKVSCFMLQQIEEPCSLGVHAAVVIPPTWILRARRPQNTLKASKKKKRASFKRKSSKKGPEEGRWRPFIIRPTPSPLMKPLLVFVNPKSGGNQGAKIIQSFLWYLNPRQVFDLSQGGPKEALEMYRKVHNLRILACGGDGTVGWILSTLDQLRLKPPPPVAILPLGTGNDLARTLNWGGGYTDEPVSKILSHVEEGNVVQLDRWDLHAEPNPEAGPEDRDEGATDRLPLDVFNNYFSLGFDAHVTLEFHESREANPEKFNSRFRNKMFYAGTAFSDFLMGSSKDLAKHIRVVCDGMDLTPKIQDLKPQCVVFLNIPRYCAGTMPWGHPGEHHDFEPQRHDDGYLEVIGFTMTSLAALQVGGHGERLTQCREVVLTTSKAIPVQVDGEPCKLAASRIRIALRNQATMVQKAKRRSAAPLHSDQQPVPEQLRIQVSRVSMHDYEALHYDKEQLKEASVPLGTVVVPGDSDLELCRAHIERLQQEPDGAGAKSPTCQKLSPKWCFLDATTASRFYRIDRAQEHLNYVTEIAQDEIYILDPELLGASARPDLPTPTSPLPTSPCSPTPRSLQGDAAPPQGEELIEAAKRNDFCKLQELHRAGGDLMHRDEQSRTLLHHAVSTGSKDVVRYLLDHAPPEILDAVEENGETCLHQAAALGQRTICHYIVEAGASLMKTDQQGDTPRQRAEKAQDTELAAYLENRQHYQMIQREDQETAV
Chain of DGKα (P23743 whole entry): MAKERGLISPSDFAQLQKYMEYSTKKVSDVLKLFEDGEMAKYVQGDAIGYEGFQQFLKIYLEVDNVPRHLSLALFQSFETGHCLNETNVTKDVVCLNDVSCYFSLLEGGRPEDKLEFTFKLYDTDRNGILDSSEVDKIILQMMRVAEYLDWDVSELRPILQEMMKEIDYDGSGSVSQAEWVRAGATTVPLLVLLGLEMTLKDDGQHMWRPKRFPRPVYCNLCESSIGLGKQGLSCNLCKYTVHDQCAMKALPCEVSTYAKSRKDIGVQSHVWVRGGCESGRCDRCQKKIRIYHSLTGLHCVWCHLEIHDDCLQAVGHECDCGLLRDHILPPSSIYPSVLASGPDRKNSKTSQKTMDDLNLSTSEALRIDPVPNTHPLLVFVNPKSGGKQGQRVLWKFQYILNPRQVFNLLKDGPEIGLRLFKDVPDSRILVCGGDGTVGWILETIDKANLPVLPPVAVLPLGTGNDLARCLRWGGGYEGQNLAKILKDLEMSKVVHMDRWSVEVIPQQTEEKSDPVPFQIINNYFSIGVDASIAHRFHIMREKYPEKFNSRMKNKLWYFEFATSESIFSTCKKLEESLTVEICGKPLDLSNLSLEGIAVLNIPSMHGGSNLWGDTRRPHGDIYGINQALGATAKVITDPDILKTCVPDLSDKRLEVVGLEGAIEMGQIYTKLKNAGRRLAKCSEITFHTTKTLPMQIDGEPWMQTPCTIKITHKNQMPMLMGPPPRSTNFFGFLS

| IC50 [1] [µM] | IC50 [2] [µM] | Structure (SMILES) |
| --- | --- | --- |
| 0.596 | 2.94 | CC[C@H]1CN(C(C)c2ccc(OC)cc2)[C@H](CC)CN1c1cc(=O)n(C)c2cn(CC#N)nc12 (single isomer, unassigned) [Compound A34b] |
| 0.131 | 0.234 | CC[C@H]1CN(C(C)c2nc(C)c(C)s2)[C@H](CC)CN1c1cc(=O)n(C)c2cn(CC#N)nc12 (single isomer, unassigned) [Compound A35a] |
| > 150 | 2.42 | CC[C@H]1CN(C(C)c2nc(C)c(C)s2)[C@H](CC)CN1c1cc(=O)n(C)c2cn(CC#N)nc12 (single isomer, unassigned) [Compound A35b] |
| 0.164 | 0.057 | CC[C@H]1CN(C(C)c2nc3c(s2)CCCC3)[C@H](CC)CN1c1cc(=O)n(C)c2cn(CC#N)nc12 (single isomer, unassigned) [Compound A36a] |
| 2.11 | 0.946 | CC[C@H]1CN(C(C)c2nc3c(s2)CCCC3)[C@H](CC)CN1c1cc(=O)n(C)c2cn(CC#N)nc12 (single isomer, unassigned) [Compound A36b] |
| 0.81 | 0.126 | CC[C@H]1CN(C(C)c2ccc(C3CC3)nc2)[C@H](CC)CN1c1cc(=O)n(C)c2cn(CC#N)nc12 (single isomer, unassigned) [Compound A38a] |
| 2.35 | 1.18 | CC[C@H]1CN(C(C)c2ccc(C3CC3)nc2)[C@H](CC)CN1c1cc(=O)n(C)c2cn(CC#N)nc12 (single isomer, unassigned) [Compound A38b] |
| 0.033 | 0.464 | CC#CCn1cc2c(n1)c(N1C[C@@H](CC)N(C(C)c3ccc(C4CC4)nc3)C[C@@H]1CC)cc(=O)n2C (single isomer, unassigned) [Compound A39a] |
| 0.237 | 2.36 | CC#CCn1cc2c(n1)c(N1C[C@@H](CC)N(C(C)c3ccc(C4CC4)nc3)C[C@@H]1CC)cc(=O)n2C (single isomer, unassigned) [Compound A39b] |
| 1.96 | 0.315 | CC[C@H]1CN(C(C)c2ccc(COC)nc2)[C@H](CC)CN1c1cc(=O)n(C)c2cn(CC#N)nc12 (single isomer, unassigned) [Compound A42a] |
| 6.64 | 5.06 | CC[C@H]1CN(C(C)c2ccc(COC)nc2)[C@H](CC)CN1c1cc(=O)n(C)c2cn(CC#N)nc12 (single isomer, unassigned) [Compound A42b] |
| 0.202 | 0.03 | CC[C@H]1CN(C(C)c2ccc(C3CC3)nc2F)[C@H](CC)CN1c1cc(=O)n(C)c2cn(CC#N)nc12 (single isomer, unassigned) [Compound A45a] |
| 0.728 | 0.865 | CC[C@H]1CN(C(C)c2ccc(C3CC3)nc2F)[C@H](CC)CN1c1cc(=O)n(C)c2cn(CC#N)nc12 (single isomer, unassigned) [Compound A45b] |
| 0.406 | 0.0064 | CC[C@H]1CN(C(C)c2ccc(C(C)(C)F)nc2)[C@H](CC)CN1c1cc(=O)n(C)c2cn(CC#N)nc12 (single isomer, unassigned) [Compound A46a] |
| 0.913 | 0.396 | CC[C@H]1CN(C(C)c2ccc(C(C)(C)F)nc2)[C@H](CC)CN1c1cc(=O)n(C)c2cn(CC#N)nc12 (single isomer, unassigned) [Compound A46b] |
| 1.19 | 0.088 | CC[C@H]1CN(C(C)c2cnc(C3CC3)cc2F)[C@H](CC)CN1c1cc(=O)n(C)c2cn(CC#N)nc12 (single isomer, unassigned) [Compound A47a] |
| 3.52 | 1.12 | CC[C@H]1CN(C(C)c2cnc(C3CC3)cc2F)[C@H](CC)CN1c1cc(=O)n(C)c2cn(CC#N)nc12 (single isomer, unassigned) [Compound A47b] |
| 0.24 | 0.059 | CC[C@H]1CN(C(C)c2ccc(C3CC3)nc2)[C@H](CC)CN1c1c(F)c(=O)n(C)c2cn(CC#N)nc12 (single isomer, unassigned) [Compound A48a] |
| 11.9 | – | CC[C@H]1CN(C(C)c2ccc(N)nc2)[C@H](CC)CN1c1cc(=O)n(C)c2cn(CC#N)nc12 (single isomer, unassigned) [Compound A187b] |

Second part, the compound before the results:

| Structure (SMILES) | IC50 [1] [µM] | IC50 [2] [µM] |
| --- | --- | --- |
| CC[C@H]1CN(C(C)c2ccc(C(=O)N3CC(OC)C3)cc2)[C@H](CC)CN1c1cc(=O)n(C)c2cn(CC#N)nc12 (single isomer, unassigned) [Compound A1a] | 0.023 | 1.44 |
| CC[C@H]1CN(C(C)c2ccc(C(=O)N3CC(OC)C3)cc2)[C@H](CC)CN1c1cc(=O)n(C)c2cn(CC#N)nc12 (single isomer, unassigned) [Compound A1b] | 0.734 | > 10 |
| CC[C@H]1CN(C(C)c2cc(F)c(C(=O)N(C)C)c(F)c2)[C@H](CC)CN1c1cc(=O)n(C)c2cn(CC#N)nc12 (single isomer, unassigned) [Compound A3a] | 13.6 | 0.227 |
| CC[C@H]1CN(C(C)c2cc(F)c(C(=O)N(C)C)c(F)c2)[C@H](CC)CN1c1cc(=O)n(C)c2cn(CC#N)nc12 (single isomer, unassigned) [Compound A3b] | 5.9 | 0.551 |
| CC[C@H]1CN(C(C)c2ccc(C(=O)N(C)C)c(F)c2)[C@H](CC)CN1c1cc(=O)n(C)c2cn(CC#N)nc12 (single isomer, unassigned) [Compound A4a] | 2.69 | 0.569 |
| CC[C@H]1CN(C(C)c2ccc(C(=O)N(C)C)c(F)c2)[C@H](CC)CN1c1cc(=O)n(C)c2cn(CC#N)nc12 (single isomer, unassigned) [Compound A4b] | 4.84 | 3.17 |
| CC[C@H]1CN(C(C)c2ccc(OC(C)C)cn2)[C@H](CC)CN1c1cc(=O)n(C)c2cn(CC#N)nc12 (single isomer, unassigned) [Compound A5la] | 0.026 | 0.138 |
| CC[C@H]1CN(C(C)c2ccc(OC(F)F)cc2)[C@H](CC)CN1c1cc(=O)n(C)c2cn(CC#N)nc12 (single isomer, unassigned) [Compound A19a] | 0.022 | 0.13 |
| CC[C@H]1CN(C(C)c2ccc(OC(F)F)cc2)[C@H](CC)CN1c1cc(=O)n(C)c2cn(CC#N)nc12 (single isomer, unassigned) [Compound A19b] | 0.289 | 4.9 |
| CC[C@H]1CN(C(C)c2ccc(OC3COC3)c(C)c2)[C@H](CC)CN1c1cc(=O)n(C)c2cn(CC#N)nc12 (single isomer, unassigned) [Compound A21a] | 2.89 | 1.47 |
| CC[C@H]1CN(C(C)c2ccc(OC3COC3)c(C)c2)[C@H](CC)CN1c1cc(=O)n(C)c2cn(CC#N)nc12 (single isomer, unassigned) [Compound A21b] | > 150 | > 10 |
| CC[C@H]1CN(C(C)c2ccc(OC3COC3)c(F)c2)[C@H](CC)CN1c1cc(=O)n(C)c2cn(CC#N)nc12 (single isomer, unassigned) [Compound A23a] | 2.35 | 3.74 |
| CC[C@H]1CN(C(C)c2ccc(OC3COC3)c(F)c2)[C@H](CC)CN1c1cc(=O)n(C)c2cn(CC#N)nc12 (single isomer, unassigned) [Compound A23b] | 0.138 | 0.534 |
| CC[C@H]1CN(C(C)c2cc(F)c(CN(C)C)c(F)c2)[C@H](CC)CN1c1cc(=O)n(C)c2cn(CC#N)nc12 (single isomer, unassigned) [Compound A25a] | 3.38 | 0.246 |
| CC[C@H]1CN(C(C)c2cc(F)c(CN(C)C)c(F)c2)[C@H](CC)CN1c1cc(=O)n(C)c2cn(CC#N)nc12 (single isomer, unassigned) [Compound A25b] | 6.02 | 2.2 |
| CC[C@H]1CN(C(C)c2ccc(CN3CCCC3)cc2)[C@H](CC)CN1c1cc(=O)n(C)c2cn(CC#N)nc12 (single isomer, unassigned) [Compound A26a] | 1.44 | 4.09 |
| CC[C@H]1CN(C(C)c2ccc(CN3CCCC3)cc2)[C@H](CC)CN1c1cc(=O)n(C)c2cn(CC#N)nc12 (single isomer, unassigned) [Compound A26b] | 24.7 | > 10 |
| CC[C@H]1CN(C(C)c2ccc(OC)cc2)[C@H](CC)CN1c1cc(=O)n(C)c2cn(CC#N)nc12 (single isomer, unassigned) [Compound A34a] | 0.037 | 0.075 |
